Patent publication US20080260714A1, “Fibrin Compositions Containing Strontium Compounds” (BAXTER INTERNATIONAL INC., priority 2007, published 2008)

Legend:
SaOS-2 cell = tested on: SaOS-2 cell
Protocol: For the initial experiments, cells were seeded on the surface of clots.

[1] = tested on: osteosarcoma cell line UMR-106; conditions: for PTH bioactivity: 24 h pre-incubation of UMR-106 cells with 20 mM salt prior to TGplPTH treatment, five experiments; for synergistic effect with PTH in generation of cAMP: UMR-106 osteoblast cells, 20 mM salt
Protocol: The present example describes in vitro studies on rat osteosarcoma cells to investigate if a combination of parathyroid hormone (PTH) and Strontium (used as SrCl2) on activation of bone formation factors like increased cAMP production in osteoblasts.
The osteosarcoma cell line UMR-106 (NewLab Bioquality AG, Erkrath, Germany) was used to perform the bioassay.
UMR-106 cells were seeded in growth medium at a density of 30000 cells/cm^2 and incubated at 37° C./8.0% CO2 After 24 hours, medium was exchanged with either fresh medium, medium containing 20 mM SrCl2 or medium containing 20 mM CaCl2. Cells were further incubated at 37° C./8.0% CO2 for 24 hours. Cells were harvested according to the following procedure:
Cells were washed twice with HBSS and detached from the surface using 6 ml trypsine/EDTA for 3 min at room temperature. Trypsin digestion was stopped with 12 ml growth medium. Following centrifugation (3 min, 1000 rpm, RT) cells were resuspended in 12 ml starvation medium and counted with a CASY cell counter. The rate of dead cells was below 10% in every experiment. Cells were resuspended to a final concentration of 1.6×10^6 cells/ml in starvation medium. 50 μl of cell suspension was transferred into each well of a 96-well plate and incubated for 30 min at 37° C., 8.0% CO2.
Samples were diluted in freshly prepared starvation medium containing 2 mM IBMX (SI medium). For preparation of SI-medium 30 μl of a 0.67M IBMX stock in DMSO was added to 10 ml of starvation medium.
All sample dilutions were prepared with this medium to inhibit phosphodiesterase activity in UMR-106 cells (Janik, P., 1980; Chasin M. and Harris, D. N., 1976). 50 μl of diluted samples (as indicated in results) were added to the cells after 30 min incubation at 37° C. For cAMP production cells were incubated for 1 h at 37° C., 8.0% CO2. Each sample concentration was added to cells at least in duplicates following cAMP analysis in duplicates.
Cell lysis and dilution of cAMP For extraction of cAMP 100 μl of cell suspension containing PTH was incubated with 25 μl (final dilution 1:5) lysis reagent solvent 1A that is part of the cAMP Biotrak EIA kit (GE Healthcare). For total lysis, cells were shaken for 15 min at 500 rpm at room temperature. […]
Data analysis. The optical density was determined in a plate reader (Synergy HT) by measuring the absorbance of the samples at 450 nm using the software KC4. […]
cAMP concentration of the samples. Taking into account the dilution factor (20×) the produced cAMP amounts were calculated using the parameters (slope and intercept) of the standard curve.
Preparation of Samples for Bioassay Analysis. […] For all samples and all dilutions, mean values of OD450, standard deviations, cAMP concentrations and coefficients of variations were calculated.

[2] = tested on: human osteoblast-like cells (SaOS-2); test: Alamar Blue proliferation of cells grown on fibrin clots; type: cell-based; conditions: SaOS-2 on clots up to 7 days; Sr salt in thrombin dilution buffer; compared to normal clot with 20 mM CaCl2
Protocol: (§1) For in-vitro experiments, the clots were prepared by pipetting 150 μl of the fibrinogen solution to the wells of a 24 well plate. The plate was put on plate shaker to ensure an even distribution over the well bottom. 150 μl of the thrombin solution was then added to the well and the plate was put on a plate shaker to ensure homogeneous clots. A human osteoblast-like cell line (SaoS-2) was cultured on the clots for up to 7 days to see if any differences in cell proliferation/cell differentiation could be observed.

[3] = tested on: human osteoblast-like cells (SaOS-2); test: alkaline phosphatase production of cells grown on fibrin clots; type: cell-based; conditions: SaOS-2 on clots containing strontium; production over 30 minutes; preliminary result
Protocol: as §1
These experiments are being repeated with a 14 day investigative period.

[4] = turbidimetric analysis of clots; type: physicochemical; conditions: strontium containing clots in comparison to calcium containing clots
Protocol: In addition to the cell studies observation, turbidmetric analysis was carried out to examine if the clot structure was altered as a result of the strontium (FIG. 4) The clot turbidity is directly proportional to average cross-sectional area of the fibres, therefore the more turbid the clot the greater the fiber diameter.

Structure (SMILES)	time at which cell death occurs (SaOS-2 cell; SaOS-2, 12.5 mM CaCl2 in medium) [h]	cell survival / proliferation (MTS assay) (SaOS-2 cell; SaOS-2 on tissue culture plastic, medium with 12.5 mM Sr or Ca)	PTH bioactivity [1]	synergistic effect with PTH in generation of cAMP [1]	proliferation (Alamar Blue) [2]	alkaline phosphatase expression [3]	clot turbidity (kinetics and absorbance) [4]
[Ca+2].[Cl-].[Cl-] [CaCl2, calcium chloride, reference compound]	≤ 24	Cell death	no change in PTH bioactivity	No such effect	–	–	–
[Cl-].[Cl-].[Sr+2] [SrCl2, Strontium Chloride]	–	–	twofold increased bioactivity	positive synergistic effect	significant increased proliferation	increase in alkaline phosphatase expression	very little difference in the kinetics and absorbance
CC(=O)[O-].CC(=O)[O-].[Sr+2] [Strontium Acetate]	–	–	–	–	–	appear not to be significant	–
